This note sets out measurements from patent US20120165384A1, “INHIBITION OF HISTONE ACETYLTRANSFERASES BY CTK7A AND METHODS THEREOF” (JAWAHARLAL NEHRU CENTRE FOR ADVANCED SCIENTIFIC RESEARCH, priority 2009, published 2012).

In series [1] the target is Tip60 (Homo sapiens, UniProt Q92993). Kind of series: HAT assay, Tip60. It is filed as biochemical. The settings on record: even at 100 μM. The procedure:
(§1) HAT gel fluorography/autoradiography assays were performed as previously reported^30. Kinetic analysis of p300 HAT inhibition was performed as reported earlier^31 in the presence of (0, 30 and 50 μM) CTK7A. The obtained values were plotted as a lineweaver burk plot using Graphpad Prism software. For p300 Autoacetylation assay, reactions of p300 full length (80 ng) were carried out in HAT assay buffer at 30° C. for 10 minutes with or without the protein (NPM1) followed by addition of 1 μl of 4.7 Ci/mmol [^3H] acetyl CoA (NEN-PerkinElmer) and were further incubated for another 10 min in a 30 μl reaction. GAPDH was used as positive control. The radio-labeled acetylated p300 were processed by fluorography followed by autoradiography.

Series [2] deals with H3 acetylation at the cyclin E promoter in KB cells. Description: ChIP assay, acetylated H3 at cyclin E promoter. Format: cell-based. As to conditions: 24 hrs treatment. As to the method:
The pull-downs for ChIP assay was performed using anti-acetylated H3 (H3AcK9AcK14) (Santa Cruz) antibody. KB cells were maintained in DMEM supplemented with 10% FBS were treated with CTK7A and cells were grown for 24 hrs. For ChIP assay cells were processed as described elsewhere^47. The pulldown was done using antibody against the above antibody and the immunoprecipitated samples were deproteinized and ethanol-precipitated to recover the DNA. Real-time PCR analysis was performed using primers for the cyclin E promoter region. PCR primers for the cyclin E promoter region were […]

Series [3] has as its target T1, p300 (Homo sapiens, UniProt Q09472). Kind of series: HAT assay with recombinant p300. Format: biochemical. Also on record: hexahistidine; made in house; host or cells: baculovirus-infected Sf21 cells. The procedure: Recombinant baculovirus expressing full-length FLAG-tagged CARM1,CBP and PCAF were purified by immunoaffinity chromatography using M2-agarose beads followed by elution with FLAG peptide. Baculovirus-expressed full-length hexahistidine-tagged p300, and G9a were purified using Ni-NTA affinity chromatography as described previously^30.
as §1

Series [4] concerns KB cell xenografts. Description: Xenograft growth assay. It is filed as in vivo, nude mice (BALB/c). As to conditions: i.p. 100 mg/kg body weight/twice a day; p<0.05. As to the method:
Animal experiments were performed with the approval by authorized ethics Committee. Sixteen nude mice (BALB/c) were included in the experiments (10 male and 6 female mice). Mice were kept in isolators in a pathogen free environment. All nude mice were 3-4 weeks old at the start of the experiments. KB cells, 2×10^6 cells were inoculated in each mice in the right and left flanks, respectively. Mice were then divided in two groups (5 males and 3 females) in each group. After the tumors grown to palpable in size, CTK7A treatment were given intraperitoneally (i.p) with 100 mg/kg body weight/twice a day. Tumors were measured once in three days with a caliper and their volumes were calculated by the formula: 0.52×D1×(D2)^2, where ‘D1’ and ‘D2’ are, respectively, the longest and shortest dimension. The last dose of the compound (CTK7A) was administered four hour before sacrificing it. Tumors were removed and put into liquid nitrogen or were fixed in 10% formalin for 1-2 h to make blocks to be used for IHC. For comparing tumor sizes between treated and control one-way ANOVA was performed using “Sigmaplot Software”. P-value<0.05 was considered as statistically significant.

Series [5] has as its target T2, PCAF (Homo sapiens, UniProt Q92831).
T2 construct: Recombinant baculovirus expressing full-length FLAG-tagged CARM1,CBP and PCAF; FLAG; made in house; host or cells: baculovirus-infected Sf21 cells
Description: PCAF autoacetylation assay in vitro. Format: biochemical. As to conditions: concentration dependent.

The test system of series [6] is KB cells. Kind of series: FACS cell cycle analysis. It is filed as cell-based. As to conditions: 24 h, concentration dependent. As to the method: KB cells were grown in the presence or absence of CTK7A for 24 h with the indicated concentration. Cells were grown in presence of CTK7A for 2 h in absence of serum followed by addition of 10% Serum. Briefly cells were harvested by mild trypsinization (0.25%) followed by centrifugation at 2000 rpm for 10 minutes at 4° C. Cells were washed with cold PBS by centrifugation at 2000 rpm for 10 minutes at 4° C. Cells were fixed in cold 70% Ethanol which was added drop wise along with mild vortexing.
Samples were left for 12 hrs, after which Ethanol was removed followed by two washes in cold PBS. RNase (100 μg/ml) treatment was subsequently given at 37° C./30 minutes to ensure only DNA staining. 50 μg/ml Propidium Iodide was added for staining. Cells were sorted and analyzed by flow cytometry for the cell cycle distribution using inbuilt software of BD FACScalibur instrument. Analysis was done in FL2 channel.

For series [7], the target named is T1, p300. Description: p300 autoacetylation enhanced by cocktail of HDAC inhibitors (immunoprecipitation). Format: cell-based. The procedure: Whole cell extract were prepared using RIPA buffer as mentioned above. The pre-blocked protein-G sepharose-bound antibody (4 μg) was incubated with 500 μg whole cell lysate overnight at 4° C. After extensive washes, bead-bound protein were analysed by western blotting with indicated antibodies. For HDAC inhibitors treatment, 5 mM sodium butyrate, 5 mM nicotiamide and 100 ng ml^−1 TSA were added 10 h before cells were harvest^36.

Series [8] in a line: Toxicity in mice after intraperitoneal administration. It is filed as in vivo. As to the method:
The in vitro and cell line based studies prompted us to study the role of CTK7A in xenograft mice. […] In order to test the effect of CTK7A on tumor growth, KB cells (2×10^6 cells) were inoculated in nude mice in the right and left flanks, respectively and treated them intraperitoneally with 100 mg/kg body weight/twice a day (for detail see Materials and Methods). […] KB cell tumors were 50% smaller in mice treated with CTK7A than in control untreated mice. The differences in the tumor size between xenografts (Control vs treated) was statistically significant (p<0.05). The levels of H3 acetylation and that of other proteins (e.g. NPM1, GAPDH, p300) were determined using IHC. […] It was observed that CTK7A decreased the levels of H3K9, K14 acetylation (as probed by H3AcK9AcK14) and ac-p300 (FIG. 6b and FIG. 6c). Further to see the site specific effect of CTK7A mediated HAT inhibition on histone acetylation, IHC was done with site specific antibodies. […] Moreover, the levels of COX2, which is induced in many cell types by mitogens, growth factors, cytokine and tumor promoters and has been implicated in many cancers, including oral cancer was also found to be suppressed in CTK7A treated tumors (FIG. 6b).

In series [9] the target is T3, full length p300 (Homo sapiens, UniProt Q09472).
T3 construct: hexahistidine; made in house; host or cells: baculovirus-infected Sf21 cells
T3 sequence (Q09472 whole entry, species assumed): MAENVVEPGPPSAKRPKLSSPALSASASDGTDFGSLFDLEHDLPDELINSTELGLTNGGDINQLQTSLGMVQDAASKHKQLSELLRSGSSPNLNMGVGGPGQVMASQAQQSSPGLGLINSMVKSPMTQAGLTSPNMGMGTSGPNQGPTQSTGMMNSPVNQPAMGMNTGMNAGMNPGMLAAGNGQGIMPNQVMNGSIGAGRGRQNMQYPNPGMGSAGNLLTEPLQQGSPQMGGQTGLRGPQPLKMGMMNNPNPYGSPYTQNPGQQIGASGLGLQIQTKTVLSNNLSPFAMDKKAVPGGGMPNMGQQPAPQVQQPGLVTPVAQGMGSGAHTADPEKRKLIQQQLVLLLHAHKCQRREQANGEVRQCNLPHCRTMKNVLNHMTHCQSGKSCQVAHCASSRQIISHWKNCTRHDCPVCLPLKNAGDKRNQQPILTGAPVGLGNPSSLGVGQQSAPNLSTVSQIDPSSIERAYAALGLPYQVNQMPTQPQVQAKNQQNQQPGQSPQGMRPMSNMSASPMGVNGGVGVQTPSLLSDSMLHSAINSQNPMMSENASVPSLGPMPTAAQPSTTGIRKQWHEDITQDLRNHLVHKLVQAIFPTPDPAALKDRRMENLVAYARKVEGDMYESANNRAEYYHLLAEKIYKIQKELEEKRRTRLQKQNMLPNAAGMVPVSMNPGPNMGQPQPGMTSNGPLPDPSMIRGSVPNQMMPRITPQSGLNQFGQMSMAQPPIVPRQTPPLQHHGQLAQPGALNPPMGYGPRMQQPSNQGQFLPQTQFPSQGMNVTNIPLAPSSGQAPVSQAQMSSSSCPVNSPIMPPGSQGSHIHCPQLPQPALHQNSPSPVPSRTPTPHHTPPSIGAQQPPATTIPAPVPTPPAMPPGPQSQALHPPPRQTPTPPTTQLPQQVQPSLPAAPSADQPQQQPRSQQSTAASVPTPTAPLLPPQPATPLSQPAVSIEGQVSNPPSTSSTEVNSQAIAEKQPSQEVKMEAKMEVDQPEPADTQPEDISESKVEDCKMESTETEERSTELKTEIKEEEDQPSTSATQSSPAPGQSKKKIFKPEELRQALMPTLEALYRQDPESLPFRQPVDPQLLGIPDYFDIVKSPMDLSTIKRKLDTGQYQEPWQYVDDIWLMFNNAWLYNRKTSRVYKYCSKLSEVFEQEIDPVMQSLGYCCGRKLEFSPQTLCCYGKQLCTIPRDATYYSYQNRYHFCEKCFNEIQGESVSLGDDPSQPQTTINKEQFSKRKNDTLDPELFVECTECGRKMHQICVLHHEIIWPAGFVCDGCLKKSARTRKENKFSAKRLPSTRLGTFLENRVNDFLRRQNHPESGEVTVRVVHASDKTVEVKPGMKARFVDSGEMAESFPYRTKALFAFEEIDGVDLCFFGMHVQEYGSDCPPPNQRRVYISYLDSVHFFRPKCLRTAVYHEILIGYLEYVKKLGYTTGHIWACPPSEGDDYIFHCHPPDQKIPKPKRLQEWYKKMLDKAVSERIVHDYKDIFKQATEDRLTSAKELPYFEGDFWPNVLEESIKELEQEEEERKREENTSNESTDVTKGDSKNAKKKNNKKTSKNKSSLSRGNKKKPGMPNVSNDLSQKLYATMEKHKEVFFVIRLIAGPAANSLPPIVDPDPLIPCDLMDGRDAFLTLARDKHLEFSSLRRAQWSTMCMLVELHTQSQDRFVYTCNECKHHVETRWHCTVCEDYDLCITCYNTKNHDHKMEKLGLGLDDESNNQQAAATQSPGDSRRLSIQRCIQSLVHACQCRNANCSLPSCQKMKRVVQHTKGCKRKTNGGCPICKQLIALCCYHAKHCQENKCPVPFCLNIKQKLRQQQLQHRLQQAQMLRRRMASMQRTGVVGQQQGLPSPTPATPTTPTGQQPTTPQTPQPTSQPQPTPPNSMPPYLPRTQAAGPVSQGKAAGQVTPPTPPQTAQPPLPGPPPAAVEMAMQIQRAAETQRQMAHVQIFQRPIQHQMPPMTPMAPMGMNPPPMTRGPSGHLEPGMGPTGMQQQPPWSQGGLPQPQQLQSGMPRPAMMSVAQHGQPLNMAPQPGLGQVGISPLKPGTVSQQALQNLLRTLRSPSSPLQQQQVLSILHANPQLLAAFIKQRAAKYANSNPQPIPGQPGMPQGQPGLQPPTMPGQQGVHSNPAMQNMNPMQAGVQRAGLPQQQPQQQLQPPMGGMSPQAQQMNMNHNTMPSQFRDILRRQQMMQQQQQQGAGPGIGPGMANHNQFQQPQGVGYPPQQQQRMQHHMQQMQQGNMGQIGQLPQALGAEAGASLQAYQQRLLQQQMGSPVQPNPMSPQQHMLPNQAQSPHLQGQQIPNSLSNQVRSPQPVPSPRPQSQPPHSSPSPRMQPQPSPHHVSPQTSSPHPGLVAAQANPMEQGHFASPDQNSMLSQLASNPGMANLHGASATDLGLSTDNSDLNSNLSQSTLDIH
Description: p300 autoacetylation assay in vitro (3H-acetyl CoA, fluorography/autoradiography). It is filed as biochemical. As to conditions: in vitro, concentration dependent. The procedure:
as §1

T1 sequence (Q09472 whole entry, species assumed): as above
Tip60, sequence (Q92993 whole entry, species assumed): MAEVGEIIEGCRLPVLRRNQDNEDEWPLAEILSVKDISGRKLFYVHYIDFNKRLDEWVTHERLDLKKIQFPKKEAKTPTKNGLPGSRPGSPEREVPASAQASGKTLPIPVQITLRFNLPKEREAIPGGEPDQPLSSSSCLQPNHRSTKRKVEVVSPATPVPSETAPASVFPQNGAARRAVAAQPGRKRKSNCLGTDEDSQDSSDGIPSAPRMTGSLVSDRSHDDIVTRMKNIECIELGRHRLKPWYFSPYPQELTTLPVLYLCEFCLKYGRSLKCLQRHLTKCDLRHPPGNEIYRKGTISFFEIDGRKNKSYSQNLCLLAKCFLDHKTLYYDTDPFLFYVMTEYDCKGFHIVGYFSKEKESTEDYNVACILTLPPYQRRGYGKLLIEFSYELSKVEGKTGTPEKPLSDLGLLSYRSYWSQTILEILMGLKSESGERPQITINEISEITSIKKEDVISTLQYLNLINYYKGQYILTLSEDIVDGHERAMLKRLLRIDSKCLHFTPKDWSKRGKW
T2 sequence (Q92831 whole entry, species assumed): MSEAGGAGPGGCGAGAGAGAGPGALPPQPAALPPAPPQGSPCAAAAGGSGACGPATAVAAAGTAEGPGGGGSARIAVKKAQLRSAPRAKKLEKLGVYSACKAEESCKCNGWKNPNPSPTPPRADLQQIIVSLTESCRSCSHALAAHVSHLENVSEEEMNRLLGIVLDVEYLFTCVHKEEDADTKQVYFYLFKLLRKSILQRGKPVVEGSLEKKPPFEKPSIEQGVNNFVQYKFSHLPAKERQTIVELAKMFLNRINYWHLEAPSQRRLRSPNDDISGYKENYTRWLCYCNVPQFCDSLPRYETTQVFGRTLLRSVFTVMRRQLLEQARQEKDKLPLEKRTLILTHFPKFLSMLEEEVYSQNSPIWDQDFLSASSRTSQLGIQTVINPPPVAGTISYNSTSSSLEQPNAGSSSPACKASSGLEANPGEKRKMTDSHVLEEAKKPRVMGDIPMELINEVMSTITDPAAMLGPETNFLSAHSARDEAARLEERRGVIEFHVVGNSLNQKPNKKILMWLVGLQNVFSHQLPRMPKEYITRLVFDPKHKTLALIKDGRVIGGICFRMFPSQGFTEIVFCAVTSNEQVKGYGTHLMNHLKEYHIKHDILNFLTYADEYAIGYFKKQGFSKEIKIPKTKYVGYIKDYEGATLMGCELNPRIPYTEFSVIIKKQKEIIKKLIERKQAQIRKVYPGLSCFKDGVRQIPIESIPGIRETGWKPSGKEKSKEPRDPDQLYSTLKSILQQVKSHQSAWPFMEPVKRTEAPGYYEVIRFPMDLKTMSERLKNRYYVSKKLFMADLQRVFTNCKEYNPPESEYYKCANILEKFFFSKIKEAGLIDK

As to `COc1cc([O-])cc(C=CC2=NN(c3ccc(C(=O)[O-])cc3)C(C=Cc3cc([O-])cc(OC)c3)C2)c1.[Na+].[Na+].[Na+]` (centres unmarked) [CTK7A, Sodium 4-(3,5-bis(3-methoxy-5-oxidostyryl)-4,5dihydro-1H-pyrazole-1-yl)benzoate], in series [1], the “effect on Tip60 activity” value is “unaffected”. Moreover, the “acetylation of H3 at the cyclin E promoter” value in series [2] is recorded as “inhibited”. The “inhibition of p300 HAT activity” value in [3] is on record as “inhibit”. In addition, the “type of inhibition pattern for p300” value in series [3] (both substrates, acetyl-coA and core histone, 0, 30 and 50 μM) is recorded as “non-competitive”. For the same molecule, the “KB cell tumors smaller than in control untreated mice” value in [4] amounted to 50%. Moreover, in series [5], the “inhibition of PCAF autoacetylation” value is “inhibit”. Besides, in [6], the “percentage of polyploid cells (>4N)” value is listed as “dramatic increase”. Further, the “inhibition of enhanced autoacetylation of p300” value in series [7] is reported as “inhibit”. Besides, the body weight loss entry in [8] (doses up to 100 mg/kg body weight/twice a day during 1 month) is “no observed weight loss”. In addition, the toxicity to mice entry in series [8] (intraperitoneal (i.p) administration) is “not toxic”. In series [9], the “inhibition of p300 autoacetylation” value was “inhibit”.
